The values that follow come from paper PMC11233931, “Remodeling tumor‐associated macrophage for anti‐cancer effects by rational design of irreversible inhibition of mitogen‐activated protein kinase‐activated protein kinase 2” (MedComm, 2024).

SMILES strings stand for the structures.

Assay in all cases: Eurofins kinase selectivity profile against 380 other human recombinant kinases (Table S2)
Common to all, as to format: biochemical

Test [1] addresses T1, 380 human recombinant protein kinases (Homo sapiens, UniProt Q13535).
T1 construct: purchased Eurofins (Celle Lévescault)
Particulars: ATR/ATRIP(h), read-out: Inhibition rate (%). An outline of the steps: (§1)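 Commercial selectivity screen of the test compound against a panel of 380 human recombinant protein kinases, run by an outside contractor at several compound concentrations to check whether its potency was specific for MK2.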

In test [2] the target is T2, 380 human recombinant protein kinases (Homo sapiens, UniProt Q05513).
T2 construct: purchased Eurofins (Celle Lévescault)
T2 sequence (Q05513 1-592): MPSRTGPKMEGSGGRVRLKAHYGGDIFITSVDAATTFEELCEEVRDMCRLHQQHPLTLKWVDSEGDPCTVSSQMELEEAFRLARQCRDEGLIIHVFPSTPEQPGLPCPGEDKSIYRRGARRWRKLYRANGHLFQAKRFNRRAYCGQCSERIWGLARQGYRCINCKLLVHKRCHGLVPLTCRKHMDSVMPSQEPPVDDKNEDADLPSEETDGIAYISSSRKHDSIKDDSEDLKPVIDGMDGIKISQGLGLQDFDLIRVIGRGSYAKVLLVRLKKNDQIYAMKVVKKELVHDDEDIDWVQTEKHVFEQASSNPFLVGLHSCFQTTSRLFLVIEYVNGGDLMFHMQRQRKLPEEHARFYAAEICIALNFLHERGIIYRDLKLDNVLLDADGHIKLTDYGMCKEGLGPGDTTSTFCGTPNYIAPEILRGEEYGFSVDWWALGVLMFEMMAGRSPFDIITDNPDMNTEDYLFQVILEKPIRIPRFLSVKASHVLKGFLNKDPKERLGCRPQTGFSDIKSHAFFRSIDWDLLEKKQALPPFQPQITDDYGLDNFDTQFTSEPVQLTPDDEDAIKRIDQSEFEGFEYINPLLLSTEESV
To be noted: PKCζ(h), read-out: Inhibition rate. An outline of the steps: as §1

The target in test [3] is T3, 380 human recombinant protein kinases (Homo sapiens, UniProt Q86Z02).
T3 construct: purchased Eurofins (Celle Lévescault)
To be noted: HIPK1(h), read-out: Inhibition rate. An outline of the steps: as §1

Test [4] addresses T4, 380 human recombinant protein kinases (Homo sapiens, UniProt Q5MAI5).
T4 construct: purchased Eurofins (Celle Lévescault)
Particulars: CDKL4(h), read-out: Inhibition rate. The procedure, abridged:
as §1

For test [5], the target named is T5, 380 human recombinant protein kinases (Homo sapiens, UniProt P51955).
T5 construct: purchased Eurofins (Celle Lévescault)
T5 sequence (P51955 1-445): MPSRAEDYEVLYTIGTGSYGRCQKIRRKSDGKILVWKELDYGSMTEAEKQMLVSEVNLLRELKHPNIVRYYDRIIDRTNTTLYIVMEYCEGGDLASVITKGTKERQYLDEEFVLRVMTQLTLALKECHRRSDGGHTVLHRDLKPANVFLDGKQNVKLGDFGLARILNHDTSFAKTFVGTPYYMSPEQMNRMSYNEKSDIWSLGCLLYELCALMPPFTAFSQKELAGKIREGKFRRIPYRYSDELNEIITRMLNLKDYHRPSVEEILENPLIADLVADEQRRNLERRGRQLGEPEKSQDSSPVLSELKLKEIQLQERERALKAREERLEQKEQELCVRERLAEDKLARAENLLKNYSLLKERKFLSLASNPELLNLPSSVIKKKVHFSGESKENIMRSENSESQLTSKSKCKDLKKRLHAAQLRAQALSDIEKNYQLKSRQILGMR
Particulars: NEK2(h), read-out: Inhibition rate. An outline of the steps:
as §1

For test [6], the target named is T6, 380 human recombinant protein kinases (Homo sapiens, UniProt Q12866).
T6 construct: purchased Eurofins (Celle Lévescault)
T6 sequence (Q12866 21-999): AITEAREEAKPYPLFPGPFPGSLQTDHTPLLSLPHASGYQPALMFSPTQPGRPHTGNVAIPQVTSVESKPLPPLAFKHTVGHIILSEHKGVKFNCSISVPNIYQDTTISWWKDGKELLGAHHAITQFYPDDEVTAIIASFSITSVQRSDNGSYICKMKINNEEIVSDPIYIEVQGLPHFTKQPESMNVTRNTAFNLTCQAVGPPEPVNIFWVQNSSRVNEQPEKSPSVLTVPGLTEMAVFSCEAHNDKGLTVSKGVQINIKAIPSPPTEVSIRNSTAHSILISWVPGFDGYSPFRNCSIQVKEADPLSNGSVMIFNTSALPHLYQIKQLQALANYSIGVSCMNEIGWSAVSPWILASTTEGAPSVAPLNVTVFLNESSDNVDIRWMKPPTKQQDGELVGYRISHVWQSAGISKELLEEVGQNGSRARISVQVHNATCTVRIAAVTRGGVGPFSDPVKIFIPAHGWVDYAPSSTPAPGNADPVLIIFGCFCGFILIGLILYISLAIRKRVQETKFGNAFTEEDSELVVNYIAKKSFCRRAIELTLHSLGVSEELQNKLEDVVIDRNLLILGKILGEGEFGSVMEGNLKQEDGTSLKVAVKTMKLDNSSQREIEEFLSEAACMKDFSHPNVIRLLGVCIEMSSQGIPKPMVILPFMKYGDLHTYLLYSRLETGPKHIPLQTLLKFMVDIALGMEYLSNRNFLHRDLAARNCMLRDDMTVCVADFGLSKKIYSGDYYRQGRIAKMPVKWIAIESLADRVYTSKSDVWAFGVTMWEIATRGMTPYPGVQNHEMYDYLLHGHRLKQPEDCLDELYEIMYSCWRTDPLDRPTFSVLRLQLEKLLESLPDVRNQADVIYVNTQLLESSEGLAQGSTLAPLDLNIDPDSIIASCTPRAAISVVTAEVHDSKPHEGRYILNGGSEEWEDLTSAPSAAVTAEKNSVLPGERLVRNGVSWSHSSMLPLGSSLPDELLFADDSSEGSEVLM
Particulars: Mer(h), read-out: Inhibition rate. An outline of the steps: as §1

Test [7] deals with T7, 380 human recombinant protein kinases (Homo sapiens, UniProt Q15208).
T7 construct: purchased Eurofins (Celle Lévescault)
To be noted: NDR1(h), read-out: Inhibition rate. The procedure, abridged: as §1

T1 sequence (Q13535 whole entry): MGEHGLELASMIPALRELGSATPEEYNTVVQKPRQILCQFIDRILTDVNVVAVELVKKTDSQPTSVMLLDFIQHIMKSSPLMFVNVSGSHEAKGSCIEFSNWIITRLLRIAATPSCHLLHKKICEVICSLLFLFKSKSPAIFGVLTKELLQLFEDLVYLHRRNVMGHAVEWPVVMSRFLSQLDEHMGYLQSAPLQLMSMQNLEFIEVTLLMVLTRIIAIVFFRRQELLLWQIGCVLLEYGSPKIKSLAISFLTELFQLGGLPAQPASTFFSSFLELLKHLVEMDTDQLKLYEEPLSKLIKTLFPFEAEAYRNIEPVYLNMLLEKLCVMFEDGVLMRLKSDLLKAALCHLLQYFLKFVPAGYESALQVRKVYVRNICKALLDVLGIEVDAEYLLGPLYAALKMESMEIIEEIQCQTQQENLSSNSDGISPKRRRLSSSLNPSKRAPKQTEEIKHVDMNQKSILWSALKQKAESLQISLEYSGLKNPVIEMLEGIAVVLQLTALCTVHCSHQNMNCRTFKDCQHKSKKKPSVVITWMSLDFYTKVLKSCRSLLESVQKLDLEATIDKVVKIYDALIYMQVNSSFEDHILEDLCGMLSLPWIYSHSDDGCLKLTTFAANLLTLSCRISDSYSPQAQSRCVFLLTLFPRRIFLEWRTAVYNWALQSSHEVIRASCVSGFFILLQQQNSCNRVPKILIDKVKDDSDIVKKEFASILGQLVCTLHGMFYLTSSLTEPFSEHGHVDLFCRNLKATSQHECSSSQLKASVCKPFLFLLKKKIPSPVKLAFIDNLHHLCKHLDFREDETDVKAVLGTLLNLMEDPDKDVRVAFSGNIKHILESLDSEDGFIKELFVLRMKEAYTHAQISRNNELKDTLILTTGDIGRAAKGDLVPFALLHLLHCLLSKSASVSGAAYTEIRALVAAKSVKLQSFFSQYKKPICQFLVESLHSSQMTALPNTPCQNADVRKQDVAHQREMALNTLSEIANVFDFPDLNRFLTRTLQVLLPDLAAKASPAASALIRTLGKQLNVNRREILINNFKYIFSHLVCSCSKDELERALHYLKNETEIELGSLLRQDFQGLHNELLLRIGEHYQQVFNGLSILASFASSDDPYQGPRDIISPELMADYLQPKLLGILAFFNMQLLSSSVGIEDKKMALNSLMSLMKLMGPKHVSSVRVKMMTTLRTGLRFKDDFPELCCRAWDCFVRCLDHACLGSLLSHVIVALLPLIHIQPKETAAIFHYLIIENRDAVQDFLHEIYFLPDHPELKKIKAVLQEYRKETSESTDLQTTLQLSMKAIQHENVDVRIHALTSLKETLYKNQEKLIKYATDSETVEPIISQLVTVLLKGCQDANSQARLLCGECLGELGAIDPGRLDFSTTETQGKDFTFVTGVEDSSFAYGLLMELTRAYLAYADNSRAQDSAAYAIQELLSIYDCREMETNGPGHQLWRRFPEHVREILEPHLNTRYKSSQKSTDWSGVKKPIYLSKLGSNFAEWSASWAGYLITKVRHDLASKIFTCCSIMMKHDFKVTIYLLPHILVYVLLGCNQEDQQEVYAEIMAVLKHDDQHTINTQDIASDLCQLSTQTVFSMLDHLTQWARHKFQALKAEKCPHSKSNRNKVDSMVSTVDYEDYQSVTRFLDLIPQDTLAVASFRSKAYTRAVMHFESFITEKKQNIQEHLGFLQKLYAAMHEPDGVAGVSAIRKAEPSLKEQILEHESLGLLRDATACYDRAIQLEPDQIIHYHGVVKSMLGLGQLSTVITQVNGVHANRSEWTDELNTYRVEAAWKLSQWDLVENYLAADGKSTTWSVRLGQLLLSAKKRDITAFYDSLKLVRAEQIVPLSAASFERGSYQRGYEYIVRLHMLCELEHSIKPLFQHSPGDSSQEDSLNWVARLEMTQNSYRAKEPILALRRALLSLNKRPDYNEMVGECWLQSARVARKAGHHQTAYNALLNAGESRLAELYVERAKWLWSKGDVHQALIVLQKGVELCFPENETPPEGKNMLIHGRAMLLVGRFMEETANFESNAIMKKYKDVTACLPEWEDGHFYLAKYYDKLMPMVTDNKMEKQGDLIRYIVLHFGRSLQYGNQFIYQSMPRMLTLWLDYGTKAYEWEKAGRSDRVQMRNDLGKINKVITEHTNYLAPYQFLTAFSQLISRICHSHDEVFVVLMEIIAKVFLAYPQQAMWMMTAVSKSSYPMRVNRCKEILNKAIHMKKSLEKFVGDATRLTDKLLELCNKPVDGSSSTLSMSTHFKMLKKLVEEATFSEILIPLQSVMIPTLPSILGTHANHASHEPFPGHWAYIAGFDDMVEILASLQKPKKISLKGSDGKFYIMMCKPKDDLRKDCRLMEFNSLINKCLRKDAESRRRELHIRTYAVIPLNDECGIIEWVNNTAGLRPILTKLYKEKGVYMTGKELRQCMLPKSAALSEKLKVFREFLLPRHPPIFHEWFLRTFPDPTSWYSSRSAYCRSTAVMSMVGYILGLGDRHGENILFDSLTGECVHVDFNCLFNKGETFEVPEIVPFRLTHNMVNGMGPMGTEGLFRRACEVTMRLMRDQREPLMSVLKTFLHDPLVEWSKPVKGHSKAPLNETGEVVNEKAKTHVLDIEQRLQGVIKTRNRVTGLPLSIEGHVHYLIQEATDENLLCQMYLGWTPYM
T7 sequence (Q15208 whole entry): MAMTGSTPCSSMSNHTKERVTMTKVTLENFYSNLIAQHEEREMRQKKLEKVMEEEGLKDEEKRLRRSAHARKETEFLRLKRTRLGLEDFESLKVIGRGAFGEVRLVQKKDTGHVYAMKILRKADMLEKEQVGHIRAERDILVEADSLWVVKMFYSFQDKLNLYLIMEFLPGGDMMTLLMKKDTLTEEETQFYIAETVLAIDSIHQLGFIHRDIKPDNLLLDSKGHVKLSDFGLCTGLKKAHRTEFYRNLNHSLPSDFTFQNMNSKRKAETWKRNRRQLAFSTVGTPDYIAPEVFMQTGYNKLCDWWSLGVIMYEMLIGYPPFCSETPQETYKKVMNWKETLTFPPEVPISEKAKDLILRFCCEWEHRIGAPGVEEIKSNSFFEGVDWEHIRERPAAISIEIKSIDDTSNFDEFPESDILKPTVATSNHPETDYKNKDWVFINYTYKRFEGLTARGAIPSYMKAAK
T3 sequence (Q86Z02 whole entry): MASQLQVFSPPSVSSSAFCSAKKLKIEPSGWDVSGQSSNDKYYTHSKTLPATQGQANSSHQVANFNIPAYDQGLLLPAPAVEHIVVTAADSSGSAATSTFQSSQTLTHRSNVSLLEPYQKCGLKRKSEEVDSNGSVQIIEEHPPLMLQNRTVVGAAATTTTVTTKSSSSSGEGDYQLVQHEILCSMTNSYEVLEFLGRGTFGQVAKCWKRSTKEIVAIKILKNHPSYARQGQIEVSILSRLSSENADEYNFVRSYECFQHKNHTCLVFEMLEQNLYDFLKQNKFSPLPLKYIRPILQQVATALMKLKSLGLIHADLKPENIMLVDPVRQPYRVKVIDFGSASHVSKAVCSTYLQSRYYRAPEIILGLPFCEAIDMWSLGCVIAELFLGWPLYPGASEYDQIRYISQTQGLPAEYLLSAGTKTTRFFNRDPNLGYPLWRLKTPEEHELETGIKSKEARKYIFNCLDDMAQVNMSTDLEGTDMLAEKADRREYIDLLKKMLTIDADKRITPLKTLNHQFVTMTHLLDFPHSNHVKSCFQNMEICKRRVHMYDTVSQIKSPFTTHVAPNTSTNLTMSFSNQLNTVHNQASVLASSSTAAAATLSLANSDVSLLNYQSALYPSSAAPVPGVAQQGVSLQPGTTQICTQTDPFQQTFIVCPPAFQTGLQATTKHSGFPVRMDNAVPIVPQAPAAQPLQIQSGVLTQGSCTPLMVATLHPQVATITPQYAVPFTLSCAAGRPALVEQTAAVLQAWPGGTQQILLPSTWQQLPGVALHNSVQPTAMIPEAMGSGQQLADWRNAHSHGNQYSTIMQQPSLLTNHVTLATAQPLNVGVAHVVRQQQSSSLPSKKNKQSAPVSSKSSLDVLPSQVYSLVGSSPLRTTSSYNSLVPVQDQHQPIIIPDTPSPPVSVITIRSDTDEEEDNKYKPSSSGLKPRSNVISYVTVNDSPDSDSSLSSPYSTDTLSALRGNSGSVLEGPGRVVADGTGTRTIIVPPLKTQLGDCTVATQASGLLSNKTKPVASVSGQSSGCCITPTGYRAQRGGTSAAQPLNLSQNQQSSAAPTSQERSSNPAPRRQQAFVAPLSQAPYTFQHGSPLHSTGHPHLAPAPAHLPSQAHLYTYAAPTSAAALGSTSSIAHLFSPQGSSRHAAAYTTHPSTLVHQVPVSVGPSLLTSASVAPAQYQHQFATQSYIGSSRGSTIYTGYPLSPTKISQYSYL
T4 sequence (Q5MAI5 whole entry): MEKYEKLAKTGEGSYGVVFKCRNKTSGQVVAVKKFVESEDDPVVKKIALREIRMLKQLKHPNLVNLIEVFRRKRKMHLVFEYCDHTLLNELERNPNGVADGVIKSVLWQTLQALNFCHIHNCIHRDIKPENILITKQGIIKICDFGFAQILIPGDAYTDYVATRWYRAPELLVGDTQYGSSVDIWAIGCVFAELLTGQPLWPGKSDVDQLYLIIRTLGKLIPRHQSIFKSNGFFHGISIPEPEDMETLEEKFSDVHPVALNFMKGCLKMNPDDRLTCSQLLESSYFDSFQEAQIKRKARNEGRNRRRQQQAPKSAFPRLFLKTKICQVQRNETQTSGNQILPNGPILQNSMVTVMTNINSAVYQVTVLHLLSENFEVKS

`C=CC(=O)Nc1cc(-c2cc(-c3cc4c([nH]3)CCNC4=O)ccn2)ccc1OC(F)(F)F` [compound 11]: the inhibition at 0.01 µM was -15% in test [1] (10 nM); -5% in test [2] (10 nM); -21% in test [3] (10 nM); 50% in test [4] (10 nM); -3% in test [5] (10 nM); -21% in test [6] (10 nM). Moreover, in test [7] (10 nM), the inhibition at 0.01 µM was -17%. Also, the inhibition at 0.1 µM is -17% in test [1] (100 nM); -4% in test [2] (100 nM); -9% in test [3] (100 nM); 83% in test [4] (100 nM); 0% in test [5] (100 nM); 4% in test [6] (100 nM). For the same compound, the inhibition at 0.1 µM in test [7] (100 nM) was -14%. The inhibition at 1 µM in test [1] (1000 nM) was -20%; in test [2] (1000 nM), -8%; in test [3] (1000 nM), -3%; in test [4] (1000 nM), 93%; in test [5] (1000 nM) it was 11%; in test [6] (1000 nM) it was 28%. Besides, the inhibition at 1 µM in test [7] (1000 nM) is -12%.

Usually inhibition stands for the change of the read-out against control, counted positive when it falls.
